Experimental data published in patent publication US10004732B2 (Novartis AG, priority 2014, dated 2018).
Counter-ions that a name gives are not always drawn. Like-named read-outs stand apart in the source and are kept apart here.

Tests used:
[1] = biological target: T1, PI 3-kinase delta (Homo sapiens, UniProt O00329); assay: TR-FRET Adapta assay, assay F; details: read-out: Assay F PI3Kδ IC50
Target sequence in this assay (O00329 whole entry): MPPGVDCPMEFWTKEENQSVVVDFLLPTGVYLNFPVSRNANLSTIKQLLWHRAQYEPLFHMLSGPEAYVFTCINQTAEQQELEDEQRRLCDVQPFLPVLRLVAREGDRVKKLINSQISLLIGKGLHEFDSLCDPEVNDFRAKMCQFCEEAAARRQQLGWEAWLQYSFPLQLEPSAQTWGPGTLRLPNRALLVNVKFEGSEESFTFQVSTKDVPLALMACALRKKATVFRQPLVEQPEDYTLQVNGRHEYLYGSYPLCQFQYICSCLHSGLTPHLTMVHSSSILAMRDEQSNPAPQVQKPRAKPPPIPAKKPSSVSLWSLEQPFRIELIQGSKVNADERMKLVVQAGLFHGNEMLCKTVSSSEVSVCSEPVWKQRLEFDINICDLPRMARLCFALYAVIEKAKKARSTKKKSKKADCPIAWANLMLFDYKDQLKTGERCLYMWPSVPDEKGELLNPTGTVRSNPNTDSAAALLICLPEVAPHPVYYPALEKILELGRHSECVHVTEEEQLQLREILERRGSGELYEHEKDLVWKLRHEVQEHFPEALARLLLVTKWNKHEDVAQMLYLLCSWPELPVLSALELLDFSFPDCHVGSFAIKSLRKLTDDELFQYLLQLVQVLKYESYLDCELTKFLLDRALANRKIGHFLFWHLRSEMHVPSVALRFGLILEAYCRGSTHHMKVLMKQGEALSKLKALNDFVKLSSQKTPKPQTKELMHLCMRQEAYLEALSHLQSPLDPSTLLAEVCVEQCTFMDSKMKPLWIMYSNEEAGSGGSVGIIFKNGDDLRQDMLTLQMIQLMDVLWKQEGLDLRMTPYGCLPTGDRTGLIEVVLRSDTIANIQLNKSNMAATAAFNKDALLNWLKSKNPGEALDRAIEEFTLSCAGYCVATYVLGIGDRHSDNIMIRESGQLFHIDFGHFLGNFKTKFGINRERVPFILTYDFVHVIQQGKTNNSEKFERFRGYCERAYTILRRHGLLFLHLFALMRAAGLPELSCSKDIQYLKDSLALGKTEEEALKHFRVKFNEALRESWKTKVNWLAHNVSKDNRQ
Target sequence in this assay (P27986 461-568 partner): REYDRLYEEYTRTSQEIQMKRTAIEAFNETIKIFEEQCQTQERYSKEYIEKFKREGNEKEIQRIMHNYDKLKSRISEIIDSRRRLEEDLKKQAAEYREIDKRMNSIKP

[2] = biological target: PI 3-kinase gamma (Homo sapiens, UniProt P48736); assay: TR-FRET Adapta assay, assay E; format: biochemical; details: read-out: Assay E PI3Kγ IC50
[3] = biological target: T2, PI 3-kinase beta (Homo sapiens, UniProt P42338); assay: Kinase Glo Luminescent Kinase Assay (Kglo), assay B; format: biochemical; details: read-out: Assay B PI3Kβ IC50
Target sequence in this assay (P42338 whole entry): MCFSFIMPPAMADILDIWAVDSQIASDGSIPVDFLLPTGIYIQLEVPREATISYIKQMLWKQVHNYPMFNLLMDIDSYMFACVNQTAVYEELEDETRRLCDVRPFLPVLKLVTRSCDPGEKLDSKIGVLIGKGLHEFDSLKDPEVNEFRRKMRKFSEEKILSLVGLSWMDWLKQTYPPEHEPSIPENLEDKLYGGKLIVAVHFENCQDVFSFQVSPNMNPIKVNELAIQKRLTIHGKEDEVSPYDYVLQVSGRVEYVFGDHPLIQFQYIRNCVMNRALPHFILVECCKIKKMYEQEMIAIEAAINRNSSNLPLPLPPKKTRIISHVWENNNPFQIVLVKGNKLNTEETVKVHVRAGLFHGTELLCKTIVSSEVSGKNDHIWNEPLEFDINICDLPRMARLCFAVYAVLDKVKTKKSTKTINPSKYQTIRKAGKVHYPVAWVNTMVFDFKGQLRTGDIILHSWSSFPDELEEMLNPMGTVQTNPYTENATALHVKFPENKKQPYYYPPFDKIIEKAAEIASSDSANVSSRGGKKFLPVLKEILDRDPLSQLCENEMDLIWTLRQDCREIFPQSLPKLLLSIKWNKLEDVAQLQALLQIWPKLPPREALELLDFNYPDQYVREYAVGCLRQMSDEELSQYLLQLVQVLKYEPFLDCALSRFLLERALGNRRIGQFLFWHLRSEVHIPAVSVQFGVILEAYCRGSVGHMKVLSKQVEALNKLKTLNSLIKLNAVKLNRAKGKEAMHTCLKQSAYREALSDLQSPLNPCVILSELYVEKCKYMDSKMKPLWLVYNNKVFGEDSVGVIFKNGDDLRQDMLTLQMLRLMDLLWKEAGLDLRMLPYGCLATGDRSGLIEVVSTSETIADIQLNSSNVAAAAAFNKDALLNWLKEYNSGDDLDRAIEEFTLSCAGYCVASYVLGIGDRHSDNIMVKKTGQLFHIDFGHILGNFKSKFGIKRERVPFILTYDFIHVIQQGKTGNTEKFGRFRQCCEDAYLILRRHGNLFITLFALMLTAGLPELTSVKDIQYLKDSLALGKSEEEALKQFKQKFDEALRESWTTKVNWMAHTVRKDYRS
Target sequence in this assay (P27986 461-568 partner): as the sequence (P27986 461-568 partner) above

[4] = biological target: T2, PI 3-kinase beta; assay: Cellular assay I1, p-Akt (S473) in Rat-1 cells, Surefire format; format: cell-based; details: non-asterisked data: version I1 (Surefire format), Rat-1 cells; read-out: Assay I PI3Kβ IC50
[5] = biological target: mTOR (Homo sapiens, UniProt P42345); assay: Lanthascreen kinase binding assay, assay G; details: read-out: Assay G mTOR IC50
Method: Lanthascreen™ Kinase Binding Assay for mTOR (G)
Binding of an inhibitor to the kinase competes for binding with the tracer, resulting in a loss of FRET.
50 nL of compound dilutions were dispensed onto white 384-well small volume polystyrene plate.

[6] = system: IL-8-induced neutrophil shape change in human whole blood; assay: Whole blood neutrophil shape change assay (L); format: cell-based; details: IL-8, human whole blood, read-out: Assay L WBSC IC50
Method: Whole Blood Neutrophil Shape Change Assay (L)
IL-8 was made up to 2 μM stocks in 0.1% bovine serum albumin/PBS and stored at −80° C. On the day IL-8 was diluted in PBS (phosphate buffered saline) 10 minutes before use. IL-8 was used at final concentration of 2 nM and a concentration range from 0.003 to 200 nM for the donor dose response curve.
Assay fixative solution was prepared fresh each day from 10× concentrated CellFIX™ solution diluted 1:10 in sterile distilled water and then 1:4 with PBS. Assay fixative solution was kept on ice prior to use.
A 10× lysis buffer was prepared in advance by dissolving 20.75 g NH4Cl and 2.5 g KHCO3 in 250 ml sterile H2O. This 10× lysis buffer was filtered under sterile conditions and stored for up to two weeks at 4° C. On the day a 1× lysis solution was prepared with sterile distilled H2O and kept on ice prior to use.
The test compounds were prepared as 10 mM stock solutions in 100% DMSO and were stored at 4° C. Once in use for an assay 10 mM stock compounds were thawed and stored at RT protected from light. Compound dilutions were prepared fresh on the day. The first series of dilutions in 100% DMSO were done first thing in the morning. Only once blood had been collected and arrived in laboratory was the next set of dilutions into PBS carried out (1:10 PBS, 10% DMSO). This limited the exposure of diluted compound to plastic and made sure the exposure timing was consistent between assays.
Compound dilutions in 100% DMSO were prepared as described previously. Human whole blood was collected in K2 EDTA Vacutainers. Once blood was in the laboratory, compound dilutions into PBS were carried out as described previously and depicted in Table 1.
The outer wells of the deep well assay plate were filled with 1200 μl of sterile distilled H2O in an effort to limit edge effects (rows A1-H1, A1-A12, A12-H12).
An IL-8 dose response was determined for each blood donor examined, to monitor the donor response to IL-8. At this step in assay preparation for the IL-8 dose response samples 10 μl of PBS was added to designated wells. In addition the assay window without DMSO was also assessed each day. For such samples at this step in assay preparation 10 μl of PBS was added in the place of 10% DMSO.
Lids were placed on the 96 well plates and samples were incubated for 15 minutes at 37° C. in a water-bath.
Following the compound pre-incubation 10× final IL-8 was added to appropriate wells (10 μl of 20 nM working stock IL-8, final IL-8 concentration in blood=2 nM) and 10 μl of PBS was added to the un-stimulated controls. 10× final dose response range IL-8 was also added to designated wells (final concentration range on assay plate was 200 nM to 0.0005 nM, 1:5 serial dilution in PBS). The IL-8 and PBS were added to appropriate wells across all assay plates in the same sequence as the blood to compound addition. […] Samples were incubated for 5 minutes at 37° C. in a water-bath. Following the incubation sample plates were transferred to ice where 250 μl of chilled Assay Fixative Buffer was added promptly to all wells.
Samples were incubated on ice for 7 minutes (no mixing). […] Once added samples were mixed once and incubated on ice for 30 minutes to achieve uniform red blood cells lysis. After lysis, 200 μl of sample was transferred to a 96 well microplate on ice. […] Granulocytes were identified based on differential side scatter (SSC) and forward scatter (FSC) characteristics.

[7] = biological target: Vps34 (Homo sapiens, UniProt Q8NEB9); assay: Kinase Glo Luminescent Kinase Assay (Kglo), assay C; format: biochemical; details: read-out: Assay C VPS34 IC50
[8] = biological target: T1, PI 3-kinase delta; assay: Cellular assay J1, p-Akt (S473) in Rat-1 cells, Surefire format; format: cell-based; details: non-asterisked data: version J1 (Surefire format), Rat-1 cells; read-out: Assay J PI3Kδ IC50
[9] = Microsomal clearance assay (M); details: intrinsic clearance in rat liver microsomes
Method: The experiments were performed in 96-well glass plates at 37° C. on an automated Tecan EVO platform. Test compounds at a concentration of 10 mM in pure DMSO were diluted 1:1000 in water to 10 μM. […] Reactions were initiated by the addition of 150 μL of a cofactor solution containing 2 mM NADPH.

[10] = biological target: PI 4-kinase beta (Homo sapiens, UniProt Q9UBF8); assay: Kinase Glo Luminescent Kinase Assay (Kglo), assay D; format: biochemical; details: read-out: Assay D PI4Kβ IC50
[11] = biological target: PI 3-kinase alpha (Homo sapiens, UniProt P42336); assay: Kinase Glo Luminescent Kinase Assay (Kglo), assay A; format: biochemical; details: read-out: Assay A PI3Kα IC50
Sequence of PI 3-kinase alpha (P42336 whole entry): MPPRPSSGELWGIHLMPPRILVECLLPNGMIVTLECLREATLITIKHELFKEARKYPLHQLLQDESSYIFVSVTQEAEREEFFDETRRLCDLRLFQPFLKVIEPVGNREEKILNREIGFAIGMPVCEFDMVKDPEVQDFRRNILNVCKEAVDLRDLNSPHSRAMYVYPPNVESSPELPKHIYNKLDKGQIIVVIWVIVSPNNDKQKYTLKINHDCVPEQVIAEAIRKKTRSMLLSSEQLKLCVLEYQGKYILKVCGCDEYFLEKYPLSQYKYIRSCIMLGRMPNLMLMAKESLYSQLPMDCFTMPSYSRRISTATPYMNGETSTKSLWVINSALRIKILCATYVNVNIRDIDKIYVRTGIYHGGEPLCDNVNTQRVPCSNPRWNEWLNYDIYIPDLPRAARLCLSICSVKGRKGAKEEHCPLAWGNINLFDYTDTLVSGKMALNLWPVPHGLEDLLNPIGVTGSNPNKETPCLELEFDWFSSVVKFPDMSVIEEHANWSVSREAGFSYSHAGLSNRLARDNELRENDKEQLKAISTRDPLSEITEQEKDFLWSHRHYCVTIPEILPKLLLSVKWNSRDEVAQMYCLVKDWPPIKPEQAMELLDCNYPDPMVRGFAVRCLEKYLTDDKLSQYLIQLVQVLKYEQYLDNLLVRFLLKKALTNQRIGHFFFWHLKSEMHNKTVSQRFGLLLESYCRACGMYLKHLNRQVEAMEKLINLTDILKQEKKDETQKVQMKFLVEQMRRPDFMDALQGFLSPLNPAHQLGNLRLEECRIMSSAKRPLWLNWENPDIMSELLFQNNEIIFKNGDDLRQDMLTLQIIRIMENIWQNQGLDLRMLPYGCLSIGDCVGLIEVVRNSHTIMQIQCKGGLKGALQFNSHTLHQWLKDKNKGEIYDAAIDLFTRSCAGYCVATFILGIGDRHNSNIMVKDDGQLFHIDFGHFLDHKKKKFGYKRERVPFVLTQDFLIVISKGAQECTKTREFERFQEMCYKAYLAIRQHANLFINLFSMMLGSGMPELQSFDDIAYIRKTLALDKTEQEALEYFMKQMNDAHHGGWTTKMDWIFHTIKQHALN
Method: Kinase Glo Luminescent Kinase Assay (Kglo) for Pb 3-Kinase Alpha (A), Pb 3-Kinase Beta (B), Vps34 (C), Pb 4-Kinase Beta (D)
The Kinase Glo Luminescent Kinase Assay (Promega, Madison/Wis., USA) is a homogeneous HTS method of measuring kinase activity by quantifying the amount of ATP remaining in solution following a kinase reaction.
L-α-phosphatidylinositol (PI), provided as 10 mg/ml solution in methanol, was transferred into a glass tube and dried under a nitrogen beam. It was then resuspended in 3% OctylGlucoside (1-0-n-octyl-beta-D-glucopyranoside) by vortexing and stored at 4° C. 5 μL of a mix of PI/OctylGlucoside with the PI 3-kinase alpha and PI 3-kinase beta subtypes, or Vps34 or PI 4-kinase beta were added. Kinase reactions were started by the addition of 5 μl of an ATP-mix containing in a final volume 10 μL 10 mM TRIS-HCl pH 7.5, 3 mM MgCl2, 50 mM NaCl, 0.05% CHAPS, 1 mM DTT and 1 μM ATP at room temperature.
All fits were performed with the program XLfit4 (ID Business Solutions, Guildford, UK).

Sequence of PI 3-kinase gamma (P48736 whole entry): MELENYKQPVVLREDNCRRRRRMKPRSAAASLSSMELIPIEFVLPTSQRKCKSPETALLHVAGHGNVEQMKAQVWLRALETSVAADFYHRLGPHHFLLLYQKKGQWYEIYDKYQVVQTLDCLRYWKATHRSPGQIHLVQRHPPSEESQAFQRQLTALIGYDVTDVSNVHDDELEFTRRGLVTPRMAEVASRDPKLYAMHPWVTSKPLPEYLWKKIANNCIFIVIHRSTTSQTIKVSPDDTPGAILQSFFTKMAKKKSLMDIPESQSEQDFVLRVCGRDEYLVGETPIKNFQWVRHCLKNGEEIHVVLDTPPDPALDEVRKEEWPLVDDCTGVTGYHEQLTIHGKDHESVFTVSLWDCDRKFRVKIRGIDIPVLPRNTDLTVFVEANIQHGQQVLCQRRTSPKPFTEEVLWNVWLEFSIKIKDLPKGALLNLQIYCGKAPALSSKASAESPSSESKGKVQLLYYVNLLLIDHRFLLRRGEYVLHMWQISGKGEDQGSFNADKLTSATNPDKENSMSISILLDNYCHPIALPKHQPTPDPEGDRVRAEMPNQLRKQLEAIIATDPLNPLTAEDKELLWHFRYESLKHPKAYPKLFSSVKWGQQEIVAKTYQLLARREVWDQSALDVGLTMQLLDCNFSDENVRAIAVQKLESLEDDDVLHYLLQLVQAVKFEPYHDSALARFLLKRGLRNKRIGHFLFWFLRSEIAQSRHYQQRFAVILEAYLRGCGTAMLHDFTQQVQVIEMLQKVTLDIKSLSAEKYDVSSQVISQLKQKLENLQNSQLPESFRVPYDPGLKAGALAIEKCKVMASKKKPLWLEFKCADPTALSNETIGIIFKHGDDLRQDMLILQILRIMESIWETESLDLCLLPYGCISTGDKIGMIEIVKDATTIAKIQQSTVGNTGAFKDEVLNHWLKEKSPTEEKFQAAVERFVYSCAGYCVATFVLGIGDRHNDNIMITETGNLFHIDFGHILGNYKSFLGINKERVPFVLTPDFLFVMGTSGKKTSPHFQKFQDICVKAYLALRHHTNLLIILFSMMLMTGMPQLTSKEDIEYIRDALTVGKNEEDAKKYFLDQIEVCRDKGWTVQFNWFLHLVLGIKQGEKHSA

SMILES	IC50 [1]	IC50 [2]	IC50 [3]	IC50 [4]	IC50 [5]	IC50 [6]	IC50 [7]	IC50 [8]	Assay M RLM CI(int) [9]	IC50 [10]	IC50 [11]	IC50 ([6]; Homo sapiens, Neutrophil)
Cc1ccc(S(=O)(=O)NC2CC3(CC(O)C3)C2)cc1-c1cnc(N)c(-c2cn(C)nc2C)n1 (single isomer, unassigned) [Example 9b, (R)-3-[5-Amino-6-(1,3-dimethyl-1H-pyrazol-4-yl)-pyrazin-2-yl]-N-(6-hydroxy-spiro[3.3]hept-2-yl)-4-methyl-benzenesulfonamide or (S)-3-[5-Amino-6-(1,3-dimethyl-1H-pyrazol-4-yl)-pyrazin-2-yl]-N-(6-hydroxy-spiro[3.3]hept-2-yl)-4-methyl-benzenesulfonamide]	240 nM	12 nM	1200 nM	> 10000 nM	> 10000 nM	335 nM	> 10000 nM	7640 nM	27 µL/min/mg	–	–	–
Cc1ccc(S(=O)(=O)NCC[C@@H](O)C(F)(F)F)cc1-c1cnc(N)c(-c2cn(C)nc2C)n1 (single isomer, unassigned) [Example 52a, (R)-3-(5-Amino-6-(1,3-dimethyl-1H-pyrazol-4-yl)pyrazin-2-yl)-4-methyl-N-(4,4,4-trifluoro-3-hydroxybutyl)benzenesulfonamide or (S)-3-(5-Amino-6-(1,3-dimethyl-1H-pyrazol-4-yl)pyrazin-2-yl)-4-methyl-N-(4,4,4-trifluoro-3-hydroxybutyl)benzenesulfonamide]	–	16 nM	–	–	–	806 nM	> 10000 nM	–	60 µL/min/mg	5500 nM	170 nM	–
Cc1ccc(S(=O)(=O)NCC2(O)CCOCC2)cc1-c1cnc(N)c(-n2cncn2)n1 [Example 32, 3-(5-Amino-6-[1,2,4]triazol-1-yl-pyrazin-2-yl)-N-(4-hydroxy-tetrahydropyran-4-ylmethyl)-4-methylbenzenesulfonamide]	–	–	–	–	> 10000 nM	–	> 10000 nM	–	28 µL/min/mg	4050 nM	–	668 nM
Cc1ncc(-c2nc(-c3cc(S(=O)(=O)NCC4COC4)ccc3C)cnc2N)s1 [Example 45.1, 3-(5-Amino-6-(2-methylthiazol-5-yl)pyrazin-2-yl)-4-methyl-N-(oxetan-3-ylmethyl)benzenesulfonamide]	80 nM	11 nM	200 nM	–	–	–	1900 nM	–	70 µL/min/mg	3000 nM	50 nM	306 nM
Cc1ccc(S(=O)(=O)NCC(C)(C)O)cc1-c1cnc(N)c(-c2cnn(C)c2)n1 [Example 46.2, 3-(5-Amino-6-(1-methyl-1H-pyrazol-4-yl)pyrazin-2-yl)-N-(2-hydroxy-2-methylpropyl)-4-methylbenzenesulfonamide]	730 nM	54 nM	2000 nM	–	9700 nM	–	> 10000 nM	–	49 µL/min/mg	6200 nM	480 nM	597 nM
Cc1ccc(S(=O)(=O)NCC(C)(C)O)cc1-c1cnc(N)c(-n2cc(C)c(C)n2)n1 [Example 47, 3-(5-Amino-6-(3,4-dimethyl-1H-pyrazol-1-yl)pyrazin-2-yl)-N-(2-hydroxy-2-methylpropyl)-4-methyl benzenesulfonamide]	530 nM	49 nM	6000 nM	–	> 10000 nM	–	> 10000 nM	–	140 µL/min/mg	8700 nM	330 nM	3140 nM
Cc1nc(C)n(-c2nc(-c3cc(S(=O)(=O)NCC(C)(C)O)ccc3C)cnc2N)n1 [Example 49, 3-(5-Amino-6-(3,5-dimethyl-1H-1,2,4-triazol-1-yl)pyrazin-2-yl)-N-(2-hydroxy-2-methylpropyl)-4-methylbenzenesulfonamide]	1700 nM	49 nM	5300 nM	–	> 10000 nM	–	> 10000 nM	–	20 µL/min/mg	> 10000 nM	620 nM	856 nM
Cc1cc(-c2nc(-c3cc(S(=O)(=O)NCCC(C)(C)O)ccc3C)cnc2N)on1 [Example 89, 3-(5-Amino-6-(3-methylisoxazol-5-yl)pyrazin-2-yl)-N-(3-hydroxy-3-methylbutyl)-4-methylbenzenesulfonamide]	840 nM	–	1300 nM	–	> 10000 nM	–	3400 nM	–	46 µL/min/mg	7000 nM	420 nM	3700 nM
Cc1noc(-c2nc(-c3cc(S(=O)(=O)NCC(C)(C)CO)ccc3C)cnc2N)n1 [Example 92, 3-(5-Amino-6-(3-methyl-1,2,4-oxadiazol-5-yl)pyrazin-2-yl)-N-(3-hydroxy-2,2-dimethylpropyl)-4-methylbenzenesulfonamide]	690 nM	73 nM	8200 nM	–	> 9100 nM	–	> 9100 nM	–	64 µL/min/mg	> 9100 nM	1400 nM	1160 nM
Cc1ccc(S(=O)(=O)NCC(C)(C)O)cc1-c1cnc(N)c(-c2nc(C(C)C)no2)n1 [Example 97, 3-(5-Amino-6-(3-isopropyl-1,2,4-oxadiazol-5-yl)pyrazin-2-yl)-N-(2-hydroxy-2-methylpropyl)-4-methylbenzenesulfonamide]	–	–	–	–	> 10000 nM	–	> 10000 nM	–	60 µL/min/mg	> 10000 nM	–	2150 nM
Cc1ccc(S(=O)(=O)NC2CCC2)cc1-c1cnc(N)c(-n2cncn2)n1 [Example 127.54]	1100 nM	32 nM	1100 nM	–	1800 nM	–	> 10000 nM	–	–	2600 nM	180 nM	> 100000 nM
Cc1ccc(S(=O)(=O)NC[C@H]2CCNC2)cc1-c1cnc(N)c(-n2cncn2)n1 [Example 127.58, (S)-3-(5-amino-6-(1H-1,2,4-triazol-1-yl)pyrazin-2-yl)-4-methyl-N-(pyrrolidin-3-ylmethyl)benzenesulfonamide trifluoroacetic acid salt]	460 nM	42 nM	1300 nM	–	1200 nM	–	> 10000 nM	–	–	> 10000 nM	1300 nM	23600 nM
Cc1cc(-c2nc(-c3cc(S(=O)(=O)NC4CCC(CO)CC4)ccc3C)cnc2N)ccn1 (stereo not drawn) [Example 129.1, 3-(5-amino-6-(2-methylpyridin-4-yl)pyrazin-2-yl)-N-(4-(hydroxymethyl)cyclohexyl)-4-methylbenzenesulfonamide]	250 nM	23 nM	6300 nM	–	6300 nM	–	> 9100 nM	–	–	6500 nM	190 nM	721 nM
Cc1cc(-c2nc(-c3cc(S(=O)(=O)NC4CC(F)(F)C4)ccc3C)cnc2N)ccn1 [Example 129.2, 3-(5-amino-6-(2-methylpyridin-4-yl)pyrazin-2-yl)-N-(3,3-difluorocyclobutyl)-4-methylbenzenesulfonamide]	1200 nM	22 nM	4300 nM	–	6100 nM	–	> 9100 nM	–	130 µL/min/mg	7000 nM	280 nM	2420 nM
Cc1cc(-c2nc(-c3cc(S(=O)(=O)NCC4(O)CCC4)ccc3C)cnc2N)ccn1 [Example 129.5, 3-(5-amino-6-(2-methylpyridin-4-yl)pyrazin-2-yl)-N-((1-hydroxycyclobutyl)methyl)-4-methylbenzenesulfonamide]	570 nM	38 nM	> 9100 nM	–	6500 nM	–	> 9100 nM	–	79 µL/min/mg	5000 nM	270 nM	1170 nM
Cc1cc(-c2nc(-c3cc(S(=O)(=O)NC4CCN(C(C)C)CC4)ccc3C)cnc2N)ccn1 [Example 129.21, 3-(5-amino-6-(2-methylpyridin-4-yl)pyrazin-2-yl)-N-(1-isopropylpiperidin-4-yl)-4-methylbenzenesulfonamide]	1000 nM	53 nM	> 9100 nM	–	> 9100 nM	–	> 9100 nM	–	–	> 9100 nM	2900 nM	8950 nM
CCN1CCC[C@@H]1CNS(=O)(=O)c1ccc(C)c(-c2cnc(N)c(-c3ccnc(C)c3)n2)c1 [Example 129.25, (R)-3-(5-amino-6-(2-methylpyridin-4-yl)pyrazin-2-yl)-N-((1-ethylpyrrolidin-2-yl)methyl)-4-methylbenzenesulfonamide]	380 nM	42 nM	2300 nM	–	> 9100 nM	–	> 9100 nM	–	–	> 9100 nM	540 nM	2950 nM
